# Measured values published in patent US9695155B2, “Herbicidal substituted pyrimidinyloxy benzene compounds” (E. I. DU PONT DE NEMOURS AND COMPANY, priority 2013, dated 2017).
# Tests used:
# [1] = system: soybean; experiment: Test C postemergence; format: in vivo, Glycine max
# Summary of the method: (§1)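 Injury was assessed visually against controls 13 to 15 days after application, with 0 meaning no effect and 100 full control; missing entries are shown as a dash. Preemergence sprays hit seeded loam–sand soil, postemergence sprays hit 1- to 4-leaf plants.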
# [2] = system: soybean; experiment: Test C preemergence; format: in vivo, Glycine max; conditions: for Soybean plant response rating: preemergence
# Summary of the method: as §1
# [3] = system: barnyardgrass; experiment: Test C preemergence; format: in vivo, Echinochloa crus-galli; conditions: for Barnyardgrass plant response rating: preemergence
# Summary of the method: as §1
# [4] = system: rice; experiment: Test B flooded paddy test; format: in vivo, Oryza sativa; conditions: Flood, 250 g ai/ha, 0 to 100 scale where 0 is no effect and 100 is complete control
# Summary of the method: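 Scores from 0 (no effect) to 100 (complete control) are visual comparisons with controls, taken 13 to 15 days after compound was applied into floodwater 3 cm deep around 2-leaf plants.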
# [5] = system: wheat, winter; experiment: Test C preemergence; format: in vivo, Triticum aestivum; conditions: for Wheat plant response rating: preemergence
# Summary of the method: as §1
# [6] = system: ragweed; experiment: Test C postemergence; format: in vivo, Ambrosia elatior
# Summary of the method: as §1
# [7] = system: wheat; experiment: Test A postemergence; format: in vivo, Triticum aestivum; conditions: 0 to 100 scale where 0 is no effect and 100 is complete control
# Summary of the method: (§2)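 Visual injury scored 0–100 (100 = complete control) against untreated controls about 10 days after treatment in a greenhouse. Test chemicals, formulated with surfactant in non-phytotoxic solvent, were sprayed on soil preemergence or on 2-10 cm, one- to two-leaf plants postemergence.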
# [8] = system: giant foxtail; experiment: Test C postemergence; format: in vivo, Setaria faberii
# Summary of the method: as §1
# [9] = system: oilseed rape; experiment: Test C postemergence; format: in vivo, Brassica napus
# Summary of the method: as §1
# [10] = system: blackgrass; experiment: Test C postemergence; format: in vivo, Alopecurus myosuroides
# Summary of the method: as §1
# [11] = system: barnyardgrass; experiment: Test A preemergence; format: in vivo, Echinochloa crus-galli
# Summary of the method: as §2
# [12] = system: blackgrass; experiment: Test C preemergence; format: in vivo, Alopecurus myosuroides; conditions: for Blackgrass plant response rating: preemergence
# Summary of the method: as §1
# [13] = system: large (Lg) crabgrass; experiment: Test C preemergence; format: in vivo, Digitaria sanguinalis; conditions: for Crabgrass, Large plant response rating: preemergence
# Summary of the method: as §1
# [14] = system: morningglory; experiment: Test A postemergence; format: in vivo, Ipomoea spp.; conditions: 0 to 100 scale where 0 is no effect and 100 is complete control
# Summary of the method: as §2
# [15] = Postemergence, 31 g ai/ha, scale 0 to 100 (0 no effect, 100 complete control), 13 to 15 days
# [16] = Postemergence, 62 g ai/ha, scale 0 to 100 (0 no effect, 100 complete control)
# [17] = 16 g ai/ha, scale 0 to 100 (0 no effect, 100 complete control)
# [18] = 62 g ai/ha, scale 0 (no effect) to 100 (complete control)
# [19] = 125 g ai/ha, scale 0 (no effect) to 100 (complete control)
# [20] = Preemergence, 31 g ai/ha, scale 0 to 100, 0 no effect, 100 complete control
# [21] = 16 g ai/ha, postemergence, visual rating, scale 0 to 100 (0 no effect, 100 complete control), 13 to 15 days
# [22] = 31 g ai/ha, postemergence, visual rating, scale 0 to 100 (0 no effect, 100 complete control), 13 to 15 days
smiles,measurement,setting,value
FCc1cccc(Oc2ncc(Cl)cn2)c1-n1cc(Br)cn1 [Compound 83],"Plant response rating (0 to 100), Soybean","[1]; 125 g ai/ha, postemergence",90
same,"Plant response rating, Soybean",[1]; [15],60
same,"Plant response rating, Soybean",[1]; [16],70
same,Soybean plant response rating,[2]; [17],5
same,Soybean plant response rating,[2]; [18],60
same,Soybean plant response rating,[2]; [19],75
same,"Plant response rating, Soybean",[2]; [20],10
same,Barnyardgrass plant response rating,[3]; [17],5
same,Barnyardgrass plant response rating,[3]; [18],45
same,Barnyardgrass plant response rating,[3]; [19],90
same,"Plant response rating, Barnyardgrass",[3]; [20],5
same,"Plant response rating, Rice",[4],0
same,Wheat plant response rating,[5]; [17],0
same,Wheat plant response rating,[5]; [18],0
same,Wheat plant response rating,[5]; [19],0
same,"Plant response rating, Wheat",[5]; [20],0
same,"Plant response rating (0 to 100), Ragweed","[6]; 125 g ai/ha, postemergence",70
same,"Plant response rating, Ragweed",[6]; [15],40
same,"Plant response rating, Ragweed",[6]; [16],60
same,"Plant response rating, Wheat",[7]; 125 g ai/ha,0
same,"Plant response rating, Wheat",[7]; 500 g ai/ha,60
same,"Foxtail, Giant plant response rating",[8]; [21],35
same,"Plant response rating (0 to 100), Foxtail, Giant","[8]; 125 g ai/ha, postemergence",40
same,"Plant response rating, Foxtail, Giant",[8]; [15],35
same,"Plant response rating, Foxtail, Giant",[8]; [16],10
same,"Plant response rating (0 to 100), Oilseed Rape","[9]; 125 g ai/ha, postemergence",80
same,"Plant response rating, Oilseed Rape",[9]; [15],50
same,"Plant response rating, Oilseed Rape",[9]; [16],55
same,Blackgrass plant response rating,[10]; [21],0
same,"Plant response rating (0 to 100), Blackgrass","[10]; 125 g ai/ha, postemergence",20
same,"Plant response rating, Blackgrass",[10]; [15],5
same,"Plant response rating, Blackgrass",[10]; [16],5
same,"Plant response rating, Barnyardgrass","[11]; 125 g ai/ha, 0 to 100 scale where 0 is no effect and 100 is complete control",60
same,Barnyardgrass plant response rating,"[11]; 500 g ai/ha, 0 to 100 scale, 0 no effect, 100 complete control, approx. 10 days",90
same,Blackgrass plant response rating,[12]; [17],0
same,Blackgrass plant response rating,[12]; [18],90
same,Blackgrass plant response rating,[12]; [19],85
same,"Plant response rating, Blackgrass",[12]; [20],5
same,"Crabgrass, Large plant response rating",[13]; [17],65
same,"Crabgrass, Large plant response rating",[13]; [18],100
same,"Crabgrass, Large plant response rating",[13]; [19],100
same,"Plant response rating, Crabgrass, Large",[13]; [20],85
"Fc1cccc(Oc2ncc(Cl)cn2)c1-n1cc(Br)cn1 [Compound 178, 2-[2-(4-bromo-1H-pyrazol-1-yl)-3-fluorophenoxy]-5-chloropyrimidine]",Soybean plant response rating,[1]; [22],70
same,"Soybean plant response rating (crop injury, 0-100 scale) at 16 g/ha","[1]; Glycine max, post-emergence, 16 g ai/ha, postemergence, 0 is no effect, 100 is complete control",50%
same,"Soybean plant response rating (crop injury, 0-100 scale) at 125 g/ha","[1]; Glycine max, post-emergence, 125 g ai/ha, postemergence, visual rating, scale 0 to 100 (0 no effect, 100 complete control), read-out: Plant response rating, Soybean",95%
same,"Soybean plant response rating (crop injury, 0-100 scale) at 62 g/ha","[1]; Glycine max, post-emergence, Postemergence, 62 g ai/ha, scale 0 to 100 (0 no effect, 100 complete control)",65%
same,plant injury at 250 g/ha,"[4]; Oryza sativa, read-out: Plant response rating, Rice",0%
same,Ragweed plant response rating,[6]; [22],55
same,pest or weed control at 16 g/ha,"[6]; Ambrosia artemisiifolia, post-emergence, 16 g ai/ha, postemergence, 0 is no effect, 100 is complete control, read-out: Plant response rating (0 to 100), Ragweed",20%
same,pest or weed control at 125 g/ha,"[6]; Ambrosia artemisiifolia, post-emergence, 125 g ai/ha, postemergence, visual rating, scale 0 to 100 (0 no effect, 100 complete control), read-out: Plant response rating, Ragweed",65%
same,pest or weed control at 62 g/ha,"[6]; Ambrosia artemisiifolia, post-emergence, Postemergence, 62 g ai/ha, scale 0 to 100 (0 no effect, 100 complete control), read-out: Plant response rating, Ragweed",30%
same,plant injury at 125 g/ha,"[7]; Triticum aestivum, post-emergence, 240 h, 125 g ai/ha, read-out: Wheat plant response rating",40%
same,plant injury at 500 g/ha,"[7]; Triticum aestivum, post-emergence, 240 h, 500 g ai/ha, read-out: Plant response rating, Wheat",80%
same,pest or weed control at 16 g/ha,"[8]; Setaria faberi, post-emergence, 16 g ai/ha, postemergence, 0 is no effect, 100 is complete control, read-out: Plant response rating (0 to 100), Foxtail, Giant",5%
same,pest or weed control at 31 g/ha,"[8]; Setaria faberi, post-emergence, 31 g ai/ha, postemergence, visual rating, scale 0 to 100 (0 no effect, 100 complete control), 13 to 15 days, read-out: Foxtail, Giant plant response rating",5%
same,pest or weed control at 125 g/ha,"[8]; Setaria faberi, post-emergence, 125 g ai/ha, postemergence, visual rating, scale 0 to 100 (0 no effect, 100 complete control), read-out: Plant response rating, Foxtail, Giant",25%
same,pest or weed control at 62 g/ha,"[8]; Setaria faberi, post-emergence, Postemergence, 62 g ai/ha, scale 0 to 100 (0 no effect, 100 complete control), read-out: Plant response rating, Foxtail, Giant",5%
same,Oilseed Rape plant response rating,[9]; [22],85
same,plant injury at 16 g/ha,"[9]; Brassica napus, post-emergence, 16 g ai/ha, postemergence, 0 is no effect, 100 is complete control, read-out: Plant response rating (0 to 100), Oilseed Rape",70%
same,plant injury at 125 g/ha,"[9]; Brassica napus, post-emergence, 125 g ai/ha, postemergence, visual rating, scale 0 to 100 (0 no effect, 100 complete control), read-out: Plant response rating, Oilseed Rape",98%
same,plant injury at 62 g/ha,"[9]; Brassica napus, post-emergence, Postemergence, 62 g ai/ha, scale 0 to 100 (0 no effect, 100 complete control), read-out: Plant response rating, Oilseed Rape",90%
same,pest or weed control at 16 g/ha,"[10]; Alopecurus myosuroides, post-emergence, 16 g ai/ha, postemergence, 0 is no effect, 100 is complete control, read-out: Plant response rating (0 to 100), Blackgrass",0%
same,pest or weed control at 31 g/ha,"[10]; Alopecurus myosuroides, post-emergence, 31 g ai/ha, postemergence, visual rating, scale 0 to 100 (0 no effect, 100 complete control), 13 to 15 days, read-out: Blackgrass plant response rating",5%
same,pest or weed control at 125 g/ha,"[10]; Alopecurus myosuroides, post-emergence, 125 g ai/ha, postemergence, visual rating, scale 0 to 100 (0 no effect, 100 complete control), read-out: Plant response rating, Blackgrass",60%
same,pest or weed control at 62 g/ha,"[10]; Alopecurus myosuroides, post-emergence, Postemergence, 62 g ai/ha, scale 0 to 100 (0 no effect, 100 complete control), read-out: Plant response rating, Blackgrass",20%
same,pest or weed control at 125 g/ha,"[11]; Echinochloa crus-galli, pre-emergence, 240 h, 125 g ai/ha, 0 to 100 scale where 0 is no effect and 100 is complete control, read-out: Plant response rating, Barnyardgrass",90%
same,pest or weed control at 500 g/ha,"[11]; Echinochloa crus-galli, pre-emergence, 240 h, 500 g ai/ha, 0 to 100 scale where 0 is no effect and 100 is complete control, read-out: Barnyardgrass plant response rating",100%
same,Morningglory plant response rating,[14]; 125 g ai/ha,70
same,pest or weed control at 500 g/ha,"[14]; Ipomoea, post-emergence, 240 h, 500 g ai/ha, read-out: Plant response rating, Morningglory",100%
